Data reported in patent US11667602B2, “Compounds and their use” (AstraZeneca AB, priority 2020, dated 2023).
Values after ≈ are worked out from the molar mass of the structure shown.

Key:
[1] = Human Plasma Protein Binding (Test B); assay type: in vitro ADME; settings: fraction unbound (fu)
Procedure, shortened: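 Values given as % free (fu) in human plasma, using the method of Wernevik et al. (2020). For compounds tested more than once, the arithmetic mean is given.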

[2] = Human Liver Microsomal Stability (Test C); assay type: in vitro ADME; settings: for microsomal CLint: human, liver microsomes
Procedure, shortened: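 CLint (μl/min/mg protein) derived from compound depletion in human liver microsomes following a published standardized early-DMPK protocol; replicate determinations given as arithmetic mean.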

[3] = Human Hepatocyte Stability (Test D); assay type: in vitro ADME; settings: geometric mean if run multiple times; for hepatocyte CLint at 1 µM: human, cryopreserved pooled human hepatocytes (LiverPool 10-Donor)
Description: Human Hepatocyte Stability (Test D)
The metabolic stability of compounds in human hepatocytes was assessed using the following protocol:
1. Prepare 10 mM stock solutions of compound and control compounds in appropriate solvent (DMSO). Place incubation medium (L-15 Medium) in a 37° C. water bath, and allow warming for at least 15 minutes prior to use.
2. Add 80 μL of acetonitrile to each well of the 96-well deep well plate (“Quenching plate”).
3. In a new 96-well plate, dilute the 10 mM test compounds and the control compounds to 100 μM by combining 198 μL of acetonitrile and 2 μL of 10 mM stock solution.
4. Remove a vial of cryopreserved (less than −150° C.) human hepatocytes (LiverPool™ 10-Donor Human hepatocytes obtained from Bioreclamation IVT (Product No. S01205)) from storage, ensuring that vials remain at cryogenic temperatures until thawing process ensues. As quickly as possible, thaw the cells by placing the vial in a 37° C. water bath and gently shaking the vials. Vials should remain in water bath until all ice crystals have dissolved and are no longer visible. After thawing is complete, spray vial with 70% ethanol, transfer the vial to a bio-safety cabinet.
5. Open the vial and pour the contents into the 50 mL conical tube containing thawing medium. Place the 50 mL conical tube into a centrifuge and spin at 100 g for 10 minutes (room temperature).
6. Using Cellometer® Vision, count cells and determine the viable cell density. Cells with poor viability (<80% viability) are not acceptable for use.
7. Transfer 247.5 μL of hepatocytes into each well of a 96-well cell incubation plate. Place the plate on Eppendorf Thermomixer Comfort plate shaker to allow the hepatocytes to warm for 10 minutes.
8. Add 2.5 μL of 100 μM test compound or control compounds into an incubation well containing cells to initiate the reaction.
9. Incubate the plate at 37° C. and 900 rpm on an Eppendorf Thermomixer Comfort plate shaker.
10. Centrifuge the quenching plates for 20 minutes at 4,000 rpm. Transfer 30 μL of supernatant of each compound into a 96-well analysis plate. 4 compounds are pooled together into one cassette. Then dilute the pooled sample by adding of 180 μl of pure water. All incubations are performed in singlicate.
All calculations were carried out using Microsoft Excel. Peak areas were determined from extracted ion chromatograms. In vitro intrinsic clearance (in vitro Clint, in μL/min/10^6 cells) of parent compound was determined by regression analysis of the Ln percent parent disappearance vs. time curve. The in vitro intrinsic clearance (in vitro Clint, in μL/min/10^6 cells) reported in Table 36, and was determined from the slope value using the following equation: in vitro Clint=kV/N
V=incubation volume (0.25 mL);
N=number of hepatocytes per well (0.25×10^6 cells)
Where the assay was run multiple times for the same compound, the geometric mean is reported.

human RXFP1 = target: T1, human RXFP1 (Homo sapiens, UniProt Q9HBX9); assay: RXFP1 Hu cAMP (Test A); assay type: cell-based; set-up: expressed in transfected cells; host or cells: Jump-In T-REx CHO-K1 cells (ThermoFisher), induced with 10 ng/ml doxycycline for 24 h; settings: RXFP1 Hu cAMP; for EC50: read-out: Test A EC50
T1 sequence (Q9HBX9 1-757): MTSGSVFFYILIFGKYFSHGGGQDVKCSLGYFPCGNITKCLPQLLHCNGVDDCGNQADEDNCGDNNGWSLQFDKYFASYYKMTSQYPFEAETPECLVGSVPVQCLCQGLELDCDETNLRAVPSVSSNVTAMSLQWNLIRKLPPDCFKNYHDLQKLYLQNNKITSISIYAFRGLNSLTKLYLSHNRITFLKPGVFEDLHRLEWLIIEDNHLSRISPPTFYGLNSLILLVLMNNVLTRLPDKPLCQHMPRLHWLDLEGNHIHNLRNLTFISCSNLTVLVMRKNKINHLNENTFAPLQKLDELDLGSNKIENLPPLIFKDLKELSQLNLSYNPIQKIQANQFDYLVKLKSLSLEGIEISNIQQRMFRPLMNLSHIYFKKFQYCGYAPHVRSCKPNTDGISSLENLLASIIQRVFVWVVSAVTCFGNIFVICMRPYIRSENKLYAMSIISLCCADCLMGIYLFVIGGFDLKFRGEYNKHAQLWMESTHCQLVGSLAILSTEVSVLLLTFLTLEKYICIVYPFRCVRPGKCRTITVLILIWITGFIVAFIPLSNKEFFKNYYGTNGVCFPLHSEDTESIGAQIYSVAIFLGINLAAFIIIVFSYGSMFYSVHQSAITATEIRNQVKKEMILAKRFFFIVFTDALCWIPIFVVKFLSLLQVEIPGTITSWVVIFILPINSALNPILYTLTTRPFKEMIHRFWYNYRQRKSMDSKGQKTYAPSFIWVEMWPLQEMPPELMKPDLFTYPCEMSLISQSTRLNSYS
Procedure, shortened: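 Read-out is HTRF signal, inversely proportional to cAMP, converted to cAMP amount by standard curve. Stimulation occurred in inducible CHO-K1 cells expressing the human receptor with phosphodiesterases blocked by 0.5 mM IBMX.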

[4] = Rat Hepatocyte Stability (Test E); assay type: in vitro ADME; settings: geometric mean if run multiple times; for hepatocyte CLint: rat, hepatocytes
Procedure, shortened: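 Intrinsic clearance in rat hepatocytes, expressed as μl/min/10^6 cells, following the literature integrated DMPK panel method. Repeat determinations combined as geometric mean.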

Solubility (Test F) = assay type: physicochemical; settings: arithmetic mean if run multiple times
Description: The assay was conducted according to the Solubility Assay described in pages 164-167 of Wernevik, J. et al., “A Fully Integrated Assay Panel for Early Drug Metabolism and Pharmacokinetics Profiling”, Assay and Drug Development Technologies, 2020, 18(4), 157-179. Data are reported in Table 36 as solubility ([…]. Where the assay was run multiple times for the same compound, the arithmetic mean is reported.

Structure (SMILES)	Test B Human Plasma Protein Binding (% free) [1] [% free]	microsomal CLint [2] [µL/min/mg]	hepatocyte CLint at 1 µM [3] [µL/min/1e6 cells]	Test A Sinf (human RXFP1) [%]	EC50 (human RXFP1) [nM]	hepatocyte CLint [4] [µL/min/1e6 cells]	solubility (Solubility (Test F)) [µM]	Test C Human Liver Microsomal Stability Clint ([2]; human liver microsomes) [µL/min/mg]	Test D Human Hepatocyte Stability Clint ([3]; human hepatocytes) [μL/min/10^6 cells]	Test E Rat Hepatocyte Stability Clint ([4]; rat hepatocytes) [μL/min/10^6 cells]
COc1cc(F)c(-c2ccc(C(=O)O)cc2)cc1C(=O)Nc1ccccc1C(=O)Nc1cccc(S(=O)(=O)C(F)(F)F)c1 [Example 328, 2′-Fluoro-4′-methoxy-5′-((2-((3-((trifluoromethyl)sulfonyl)phenyl)carbamoyl)phenyl)carbamoyl)-[1,1′-biphenyl]-4-carboxylic acid]	<0.10	< 3	11	117	190					
COc1cc(F)c(-c2cnc(CCC(=O)O)cn2)cc1C(=O)N[C@@H]1[C@H]2CC[C@H](C2)[C@@H]1C(=O)Nc1cccc(S(=O)(=O)C(F)(F)F)c1 [Example 238]		42	13	102	140	27	890 (≈ 592 µg/mL)			
COc1cc(F)c(O[C@H]2CC[C@@H](C(=O)O)CC2)cc1C(=O)N[C@@H]1[C@H]2CC[C@H](C2)[C@@H]1C(=O)N[C@H](C)C(C)(C)C [Example 200]		32	3.7	100	590	15	55 (≈ 29.3 µg/mL)			
CCC(C)CNC(=O)C1C2CCC(C2)C1NC(=O)c1cc(OC2CCC(C(=O)O)CC2)c(F)cc1OC (single isomer, unassigned) [Example 203, (1S,4s)-4-(2-Fluoro-4-methoxy-5-(((1S,2R,3S,4R)-3-(((R*)-2-methylbutyl)carbamoyl)bicyclo[2.2.1]heptan-2-yl)carbamoyl)phenoxy)cyclohexane-1-carboxylic acid]				118			1000 (≈ 519 µg/mL)	19	5	34
COc1cc(F)c(O[C@H]2CC[C@@H](C(=O)O)CC2)cc1C(=O)N[C@@H]1[C@H]2CC[C@H](C2)[C@@H]1C(=O)NCC1(C)CC1 [Example 198]		12	6.6	99	1200	77	920 (≈ 475 µg/mL)			
CCC(C)CNC(=O)C1C2CCC(C2)C1NC(=O)c1cc(OC2CCC(C(=O)O)CC2)c(F)cc1OC (single isomer, unassigned) [Example 202, (1S,4s)-4-(2-Fluoro-4-methoxy-5-(((1S,2R,3S,4R)-3-(((R*)-2-methylbutyl)carbamoyl)bicyclo[2.2.1]heptan-2-yl)carbamoyl)phenoxy)cyclohexane-1-carboxylic acid]		14	5.6	102		57	890 (≈ 462 µg/mL)			
COc1cc(F)c(O[C@H]2CC[C@@](C)(C(=O)O)CC2)cc1C(=O)N[C@@H]1CCC[C@@H]1C(=O)NCC1(C)CCC1 [Example 67]		< 3	2.6	105	270	18	> 1000			
COc1cc(F)c(O[C@H]2CC[C@@](C)(C(=O)O)CC2)cc1C(=O)N[C@@H]1CCC[C@@H]1C(=O)N[C@H](C)C(C)(C)C [Example 65, (1S,4s)-4-(5-(((1R,2S)-2-(((R)-3,3-Dimethylbutan-2-yl)carbamoyl)cyclopentyl)carbamoyl)-2-fluoro-4-methoxyphenoxy)-1-methylcyclohexane-1-carboxylic acid]		5.5	3.1	99	160	9.7	> 1000			
COc1cc(F)c(-c2ccc(C(=O)O)c(O)c2)cc1C(=O)N[C@@H]1[C@H]2CC[C@H](C2)[C@@H]1C(=O)Nc1cccc(S(=O)(=O)C(F)(F)F)c1 [Example 247]		14	9.5	104	50	12	190 (≈ 124 µg/mL)			
COc1cc(F)c(-c2ccc(CCC(=O)O)cn2)cc1C(=O)N[C@@H]1[C@H]2CC[C@H](C2)[C@@H]1C(=O)Nc1cccc(S(=O)(=O)C(F)(F)F)c1 [Example 242]		110	26	109	200	30	900 (≈ 597 µg/mL)			
COc1cc(F)c(-c2ccc(-c3nn[nH]n3)cc2)cc1C(=O)N[C@@H]1[C@H]2CC[C@H](C2)[C@@H]1C(=O)Nc1cccc(S(=O)(=O)C(F)(F)F)c1 [Example 325, (1R,2S,3R,4S)-3-(6-Fluoro-4-methoxy-4′-(1H-tetrazol-5-yl)-[1,1′-biphenyl]-3-carboxamido)-N-(3-((trifluoromethyl)sulfonyl)phenyl)bicyclo[2.2.1]heptane-2-carboxamide]	<0.30	18	5	109	120		880 (≈ 580 µg/mL)			
COc1cc(F)c(O[C@H]2CC[C@@](C)(C(=O)O)CC2)cc1C(=O)NC1C(C(=O)Nc2cccc(S(=O)(=O)C(F)(F)F)c2)CC2OCOC21 (single isomer, unassigned) [Example 512, (1R,4s)-4-(2-Fluoro-4-methoxy-5-(((3aR*,4S*,5S*,6aS*)-5-((3-((trifluoromethyl)sulfonyl)phenyl)carbamoyl)tetrahydro-4H-cyclopenta[d][1,3]dioxol-4-yl)carbamoyl)phenoxy)-1-methylcyclohexane-1-carboxylic acid]		12	4.2	104		25	880 (≈ 606 µg/mL)			
